Key:
YqcA = target: T1, YqcA (Escherichia coli, UniProt P65367); experiment: solution NMR structure of holo-form; […] HSQC titration; assay type: binding; conditions: oxidized FMN, non-covalent; slow exchange; pH 7.0, 30 mM sodium phosphate, 30 mM NaCl, 25 °C
T1 construct: monomer; short-chain flavodoxin

FldA = target: T2, FldA (Escherichia coli, UniProt P61949); experiment: as above; assay type: binding; conditions: oxidized FMN, non-covalent; pH 7.0, 30 mM sodium phosphate, 30 mM NaCl, 25 °C
T2 construct: monomer; long-chain flavodoxin
T2 sequence (P61949 1-176): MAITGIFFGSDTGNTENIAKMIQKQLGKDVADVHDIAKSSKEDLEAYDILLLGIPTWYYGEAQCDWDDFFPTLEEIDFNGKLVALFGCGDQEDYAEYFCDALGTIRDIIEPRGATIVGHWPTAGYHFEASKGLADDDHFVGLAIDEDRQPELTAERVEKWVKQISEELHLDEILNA

T1 sequence (P65367 whole entry): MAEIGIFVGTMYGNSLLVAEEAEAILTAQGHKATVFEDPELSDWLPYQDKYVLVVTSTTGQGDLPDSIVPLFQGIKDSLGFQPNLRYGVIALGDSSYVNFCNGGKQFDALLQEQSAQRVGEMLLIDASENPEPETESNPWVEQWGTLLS

In the case of `Cc1cc2nc3c(=O)[nH]c(=O)nc-3n(C[C@H](O)[C@H](O)[C@H](O)COP(=O)(O)O)c2cc1C` [FMN], the “solution NMR structure of holo-form; 15N HSQC titration” value (YqcA) is reported as “These results demonstrate that YqcA binds FMN with high affinity” and the “solution NMR structure of holo-form; 15N HSQC titration” value (FldA) is reported as “FMN titration experiments were performed with FldA”.

Source: PMC4122359, “Conformational Dynamics of Escherichia coli Flavodoxins in Apo- and Holo-States by Solution NMR Spectroscopy” (PLoS ONE, 2014)
